One may read the melting point as the temperature, or range, at which the solid turns liquid.

The structures appear in SMILES notation.

This passage reports melting point results from patent US6384220B2, “Para-aryl or heterocyclic substituted phenyl glucokinase activators” (Hoffmann-La Roche Inc., priority 2000, dated 2002).

For `O=C(Nc1nccs1)C(CC1CCCC1)c1ccc(S(=O)(=O)c2ncc[nH]2)cc1` (centres unmarked) [Example 20, 3-Cyclopentyl-2-[4-(1H-imidazole-2-sulfonyl)-phenyl]-N-thiazol-2-yl-propionamide], the melting point lay in the range of 249 to 251 °C.

`O=C(Nc1nccs1)C(CC1CCCC1)c1ccc(Oc2ccccc2)cc1` (centres unmarked) [Example 12, 3-Cyclopentyl-2-(4-phenoxy-phenyl)-N-thiazol-2-yl-propionamide] showed a melting point of 154.9 to 155.1 °C.

In the case of `NC(=O)NC(=O)C(CC1CCCC1)c1ccc(-c2ccccc2)cc1` (centres unmarked) [Example 33, (2-Biphenyl-4-yl-3-cyclopentyl-propionyl) urea], the melting point was in the range of 184 to 185 °C.

As for `CNC(=O)NC(=O)C(CC1CCCC1)c1ccc(-c2ccc3[nH]ccc3c2)cc1` (centres unmarked) [Example 37, 1-{3-Cyclopentyl-2-[4-(1H-indol-5-yl)-phenyl]-propionyl}-3-methyl-urea], the melting point was in the range of 91 to 95 °C.

Take `COC(=O)c1csc(NC(=O)C(CC2CCCC2)c2ccc(-c3ccccc3)cc2)n1` (centres unmarked) [Example 2, 2-(2-Biphenyl-4-yl-3-cyclopentyl-propionylamino)-thiazole-4-carboxylic acid methyl ester]: the melting point lay within 98 to 101 °C.

Compound `O=C(Nc1nccs1)C(CC1CCCC1)c1ccc(OCc2ccccc2)cc1` (centres unmarked) [Example 11, 2-(4-Benzyloxy-phenyl)-3-cyclopentyl-N-thiazol-2-yl-propionamide] had a melting point of 48 to 50 °C.

Consider `O=C(Nc1ccccn1)C(CC1CCCC1)c1ccc(-c2ccccc2)cc1` (centres unmarked) [Example 21, 2-Biphenyl-4-yl-3-cyclopentyl-N-pyridin-2-yl-propionamide], for which the melting point was in the range of 57 to 59 °C.

In turn, `O=C(Nc1nc(CCO)cs1)C(CC1CCCC1)c1ccc(-c2cccc3ccccc23)cc1` (centres unmarked) [Example 6, 3-Cyclopentyl-N-[4-(2-hydroxyethyl)-thiazol-2-yl]-2-(4-naphthalen-1-yl-phenyl)-propionamide] gave a melting point of 84 to 87 °C.

In turn, `O=C(Nc1nc(CO)cs1)C(CC1CCCC1)c1ccc(Oc2ccccc2)cc1` (centres unmarked) [Example 13, 3-Cyclopentyl-N-(4-hydroxymethyl-thiazol-2-yl)-2-(4-phenoxy-phenyl)-propionamide] gave a melting point of 83.7 to 87 °C.

In the case of `O=C(Nc1nccs1)C(CC1CCCC1)c1ccc(N2CCOCC2)cc1` (centres unmarked) [Example 18, 3-Cyclopentyl-2-(4-morpholin-4-yl-phenyl)-N-thiazol-2-yl-propionamide], the melting point lay within 244 to 246 °C.

As to `O=C(Nc1ccccn1)C(CC1CCCC1)c1ccc(-c2ccncc2)cc1` (centres unmarked) [Example 29, 3-Cyclopentyl-N-pyridin-2-yl-2-(4-pyridin-4-yl-phenyl)-propionamide], the melting point fell in the range of 165 to 167 °C.

The compound `CNC(=O)NC(=O)C(CC1CCCC1)c1ccc(-c2cccnc2)cc1` (centres unmarked) [Example 36, 1-[3-Cyclopentyl-2-(4-pyridin-3-yl-phenyl)-propionyl]-3-methyl-urea] showed a melting point of 158 to 160 °C.

Regarding `O=C(Nc1nccs1)C(CC1CCCC1)c1ccc(-c2ccc3[nH]ccc3c2)cc1` (centres unmarked) [Example 10, 3-Cyclopentyl-2-[4-(1H-indol-5-yl)-phenyl]-N-thiazol-2-yl-propionamide], the melting point was 112 to 115 °C.

As to `O=C(Nc1nc(CO)cs1)C(CC1CCCC1)c1ccc(-c2ccccc2)cc1` (centres unmarked) [Example 3, 2-Biphenyl-4-yl-3-cyclopentyl-N-(4-hydroxymethyl-thiazol-2-yl)-propionamide], the melting point fell in the range of 102 to 104 °C.

In turn, `O=C(O)c1ccc(NC(=O)C(CC2CCCC2)c2ccc(-c3cccc4ccccc34)cc2)nc1` (centres unmarked) [Example 26, 6-[3-Cyclopentyl-2-(4-naphthalen-1-yl-phenyl)-propionylamino]-nicotinic acid] had a melting point of 155 to 158 °C.

As for `CNC(=O)NC(=O)C(CC1CCCC1)c1ccc(-c2cccc3ccccc23)cc1` (centres unmarked) [Example 35, 1-[3-Cyclopentyl-2-(4-naphthalen-1-yl-phenyl)-propionyl]-3-methyl urea], the melting point is 85 to 88 °C.

Take `O=C(Nc1nccs1)C(CC1CCCC1)c1ccc(-c2ccccc2)cc1` (centres unmarked) [Example 1, 2-Biphenyl-4-yl-3-cyclopentyl-N-thiazol-2-yl-propionamide]: the melting point is 194 to 195 °C.

In the case of `O=C(Nc1nccs1)C(CC1CCCC1)c1ccc(-c2cccs2)cc1` (centres unmarked) [Example 7, 3-Cyclopentyl-N-thiazol-2-yl-2-(4-thiophen-2-yl-phenyl)-propionamide], the melting point is 194 °C (dec.).

`CNC(=O)NC(=O)C(CC1CCCC1)c1ccc(S(=O)(=O)C2CCCCC2)cc1` (centres unmarked) [Example 40, 1-[2-(4-Cyclohexanesulfonyl-phenyl)-3-cyclopentyl-propionyl]-3-methyl-urea] came in with a melting point of 244 to 246 °C.

For `CNC(=O)NC(=O)C(CC1CCCC1)c1ccc(-c2ccccc2)cc1` (centres unmarked) [Example 34, 1-(2-Biphenyl-4-yl-3-cyclopentyl-propionyl)-3-methyl urea], the melting point fell in the range of 195 to 197 °C.

The compound `O=C(Nc1nccs1)C(CC1CCCC1)c1ccc(S(=O)(=O)C2CCCC2)cc1` (centres unmarked) [Example 19, 2-(4-Cyclopentanesulfonyl-phenyl)-3-cyclopentyl-N-thiazol-2-yl-propionamide] returned a melting point of 180 to 182 °C.

Regarding `COC(=O)c1ccc(NC(=O)C(CC2CCCC2)c2ccc(-c3ccccc3)cc2)nc1` (centres unmarked) [Example 22, 6-(2-Biphenyl-4-yl-3-cyclopentyl-propionylamino)-nicotinic acid methyl ester], the melting point was in the range of 63 to 65 °C.

Compound `O=C(Nc1ccc(CO)cn1)C(CC1CCCC1)c1ccc(-c2cccc3ccccc23)cc1` (centres unmarked) [Example 27, 3-Cyclopentyl-N-(5-hydroxymethyl-pyridin-2-yl)-2-(4-naphthalen-1-yl-phenyl)-propionamide] registered a melting point of 72 to 75 °C.

For `O=C(Nc1nccs1)[C@H](CC1CCCC1)c1ccc(-c2ccccc2)cc1` [Example 4, (2R)-2-Biphenyl-4-yl-3-cyclopentyl-N-thiazol-2-yl-propionamide], the melting point lay in the range of 132 to 134 °C.

With `O=C(Nc1ccc(CO)cn1)C(CC1CCCC1)c1ccc(-c2ccccc2)cc1` (centres unmarked) [Example 24, 2-Biphenyl-4-yl-3-cyclopentyl-N-(5-hydroxymethyl-pyridin-2-yl)-propionamide], the melting point lay in the range of 67 to 70 °C.

`O=C(Nc1ccccn1)C(CC1CCCC1)c1ccc(-c2cccc3ccccc23)cc1` (centres unmarked) [Example 25, 3-Cyclopentyl-2-(4-naphthalen-1-yl-phenyl)-N-pyridin-2-yl-propionamide] returned a melting point of 73 to 77 °C.

On to `O=C(O)c1ccc(NC(=O)C(CC2CCCC2)c2ccc(-c3ccccc3)cc2)nc1` (centres unmarked) [Example 23, 6-(2-Biphenyl-4-yl-3-cyclopentyl-propionylamino)-nicotinic acid], for which the melting point was 271 to 272 °C (dec.).

`O=C(Nc1nccs1)C(CC1CCCC1)c1ccc(-c2cccnc2)cc1` (centres unmarked) [Example 8, 3-Cyclopentyl-2-(4-pyridin-3-yl-phenyl)-N-thiazol-2-yl-propionamide] showed a melting point of 48 to 52 °C.

In the case of `O=C(Nc1nccs1)C(CC1CCCC1)c1ccc(-c2cccc3ccccc23)cc1` (centres unmarked) [Example 5, 3-Cyclopentyl-2-(4-naphthalen-1-yl-phenyl)-N-thiazol-2-yl-propionamide], the melting point was in the range of 202 to 204 °C.

Turning to `CNC(=O)NC(=O)C(CC1CCCC1)c1ccc(N2CCOCC2)cc1` (centres unmarked) [Example 39, 1-[3-Cyclopentyl-2-(4-morpholin-4-yl-phenyl)-propionyl]-3-methyl-urea], the melting point was in the range of 206 to 207 °C.

Compound `O=C(Nc1nccs1)C(CC1CCCC1)c1ccc(-c2ccncc2)cc1` (centres unmarked) [Example 9, 3-Cyclopentyl-2-(4-pyridin-4-yl-phenyl)-N-thiazol-2-yl-propionamide] registered a melting point of 213 to 215 °C.

In turn, `O=C(Nc1ccccn1)C(CC1CCCC1)c1ccc(-c2cccnc2)cc1` (centres unmarked) [Example 28, 3-Cyclopentyl-N-pyridin-2-yl-2-(4-pyridin-3-yl-phenyl)-propionamide] had a melting point of 139 to 140 °C.
